Measurements as given in ChEMBL document CHEMBL4390649, “Fine-tuning the neuroprotective and blood-brain barrier permeability profile of multi-target agents designed to prevent progressive mitochondrial dysfunction” (Eur J Med Chem, 2019).
Active and inactive are the calls of the source. The rule behind the calls is not given here.

Assays:
[1] = Antioxidant activity assessed as DPPH radical scavenging activity measured after 45 mins by UV-Visible spectrophotometric based assay; format: functional
[2] = Antioxidant activity assessed as ABTS radical scavenging activity measured after 15 mins by UV-Visible spectrophotometric based assay; format: functional
[3] = Electrochemical behavior of the compound assessed as redox potential corrected toward saturated Ag/AgCl reference electrode by cyclic voltammetry
[4] = Electrochemical behavior of the compound assessed as redox potential corrected toward saturated Ag/AgCl reference electrode by differential pulse voltammetry
SH-SY5Y [5] = assay: Neuroprotective activity against TBHP-induced oxidative damage in human SH-SY5Y cells assessed as increase in cell viability at 10 uM pretreated for 24 hrs followed by TBHP stimulation measured after 4 hrs by MTT assay relative to control; format: functional, cell-based
[6] = Cytotoxicity against human SH-SY5Y cells assessed as cell metabolic activity at 50 uM incubated for 24 hrs by MTT assay relative to control; format: ADME, cell-based; details: read-out: Activity
[7] = Cytotoxicity against human HepG2 cells assessed as cell metabolic activity at 10 uM incubated for 48 hrs by resazurin assay relative to control; format: ADME, cell-based; details: read-out: Activity
[8] = Metal chelating activity assessed as compound-Fe2+ complex formation at 100 uM incubated for 10 mins by ferrozine spectrophotometric assay
[9] = Cytotoxicity against human SH-SY5Y cells assessed as cell metabolic activity at 10 uM incubated for 24 hrs by MTT assay relative to control; format: ADME, cell-based; details: read-out: Activity
[10] = Cytotoxicity against human HepG2 cells assessed as cell metabolic activity at 50 uM incubated for 48 hrs by resazurin assay relative to control; format: ADME, cell-based; details: read-out: Activity
SH-SY5Y [11] = assay: Induction of ROS generation in human SH-SY5Y cells at 50 uM incubated for 24 hrs by DCFH-DA probe based fluorescence assay relative to control; format: functional
SH-SY5Y [12] = assay: Neuroprotective activity against 6-OHDA-induced toxicity in human SH-SY5Y cells assessed as reduction in cell damage at 10 to 50 uM pretreated for 24 hrs followed by 6-OHDA challenge and measured after 24 hrs by MTT assay relative to control; format: functional
SH-SY5Y [13] = assay: Neuroprotective activity against H2O2-induced oxidative damage in human SH-SY5Y cells assessed as reduction in cell damage at 10 uM pretreated for 24 hrs followed by H2O2 challenge measured after 30 mins by MTT assay relative to control; format: functional; design: scale not given: the % may be the effect or the level left
SH-SY5Y [14] = assay: Neuroprotective activity against H2O2-induced oxidative damage in human SH-SY5Y cells assessed as reduction in cell damage at 50 uM pretreated for 24 hrs followed by H2O2 challenge measured after 30 mins by MTT assay relative to control; format: functional; design: scale not given: the % may be the effect or the level left
SH-SY5Y [15] = assay: Neuroprotective activity against TBHP-induced oxidative damage in human SH-SY5Y cells assessed as increase in cell viability at 50 uM pretreated for 24 hrs followed by TBHP stimulation measured after 4 hrs by MTT assay relative to control; format: functional
[16] = Cytotoxicity against human CMEC/D3 cells assessed as reduction in cell viability at 50 to 100 uM incubated for 4 hrs by MTT assay relative to control; format: cell-based; details: hcmec/d3, 4 h
[17] = Apparent permeability across apical to basolateral side in human CMEC/D3 cells at 100 uM incubated up to 180 mins by UV-VIS spectroscopic method; format: ADME, cell-based; details: hcmec/d3, 3 h
[18] = Apparent permeability across apical to basolateral side in human CMEC/D3 cells at 100 uM incubated by UV-VIS spectroscopic method; format: ADME, cell-based; details: hcmec/d3, 100 µM, TDE = time-dependent effect

SMILES | IC50 [1] [µM] | IC50 [2] [µM] | Activity [3] [mV] | Activity [4] [mV] | Activity (SH-SY5Y [5]) | viability at 24 h, 50 µM [6] [%] | viability at 48 h, 10 µM [7] [%] | Activity [8] [%] | viability at 24 h, 10 µM [9] [%] | viability at 48 h, 50 µM [10] [%] | Activity (SH-SY5Y [11]) | Activity (SH-SY5Y [12]) | Activity (SH-SY5Y [13]) | Activity (SH-SY5Y [14]) | Activity (SH-SY5Y [15]) | Activity [16] | permeability [17] [%] | permeability [18]
O=C(O)/C=C/c1ccc(O)c(O)c1 [CAFFEIC ACID] | 28.5 | 20.5 | 168 | 168 | – | – | – | – | – | – | – | – | – | – | – | – | – | –
O=C(NCCCCCCCCCC[P+](c1ccccc1)(c1ccccc1)c1ccccc1)c1cc(O)c(O)c(O)c1 | 10.2 | 7.4 | 114 | 725 | inactive | 101 | 108 | > 80 | 107 | 108 | Active | inactive | 70.8 - 83.3% | 70.8 - 83.3% | inactive | – | – | –
O=C(O)CCc1ccc(O)c(O)c1 [DIHYDROCAFFEIC ACID] | 24.8 | 24 | 112 | 216 | – | – | – | – | – | – | – | – | – | – | – | – | – | –
CS(=O)(=O)[O-].O=C(CCc1cc(O)c(O)c(O)c1)NCCCCCC[P+](c1ccccc1)(c1ccccc1)c1ccccc1 | 20.2 | 10.9 | 11 | 547 | inactive | 91.7 | 113 | > 80 | 95.9 | 117 | Active | Active | – | – | inactive | Non-Toxic | 23.7 | Tde
O=C(O)Cc1ccc(O)c(O)c1 [3,4-DIHYDROXYPHENYLACETIC ACID] | 26.2 | 18 | 122 | 270 | – | – | – | – | – | – | – | – | – | – | – | – | – | –
O=C(O)CCc1cc(O)c(O)c(O)c1 | 11.1 | 9.2 | 120 | 543 | – | – | – | – | – | – | – | – | – | – | – | – | – | –
O=C(O)/C=C/c1cc(O)c(O)c(O)c1 | 10.3 | 4.6 | 56 | 589 | – | – | – | – | – | – | – | – | – | – | – | – | – | –
O=C(O)c1ccc(O)c(O)c1 [PROTOCATECHUIC ACID] | 42 | 26.1 | 234 | 234 | – | – | – | – | – | – | – | – | – | – | – | – | – | –
O=C(NCCCCCC[P+](c1ccccc1)(c1ccccc1)c1ccccc1)c1ccc(O)c(O)c1 | 31 | 20.7 | 219 | 219 | inactive | 96.9 | 97.4 | > 80 | 102 | 90.3 | – | inactive | inactive | – | inactive | – | – | –
Cc1c(C)c2c(c(C)c1O)CCC(C)(C(=O)O)O2 (configuration not stated) [TROLOX] | 31.1 | 24.5 | 113 | 113 | – | 3.62 | 5.99 | – | 3.62 | 5.99 | – | – | – | – | – | – | – | –
O=C(O)Cc1cc(O)c(O)c(O)c1 | 6.8 | 4.7 | 135 | 550 | – | – | – | – | – | – | – | – | – | – | – | – | – | –
CS(=O)(=O)[O-].O=C(/C=C/c1cc(O)c(O)c(O)c1)NCCCCCCCCCC[P+](c1ccccc1)(c1ccccc1)c1ccccc1 | 13.7 | 7.5 | 57 | 741 | inactive | 101 | 105 | > 80 | 99 | 108 | Active | inactive | 70.8 - 83.3% | 70.8 - 83.3% | inactive | – | – | –
CS(=O)(=O)[O-].O=C(Cc1ccc(O)c(O)c1)NCCCCCC[P+](c1ccccc1)(c1ccccc1)c1ccccc1 | 55 | 27.2 | 141 | 141 | inactive | 96.9 | 103 | > 80 | 95.3 | 100 | 81.3% | Active | – | inactive | 22.3% | Non-Toxic | 71.9 | Tde
CS(=O)(=O)[O-].O=C(CCc1ccc(O)c(O)c1)NCCCCCC[P+](c1ccccc1)(c1ccccc1)c1ccccc1 | 55.6 | 28.3 | 132 | 132 | inactive | 97.5 | 104 | > 80 | 93.5 | 99.3 | 83.1% | Active | – | Active | inactive | Non-Toxic | 24.6 | Tde
O=C(O)c1cc(O)c(O)c(O)c1 [GALLIC ACID] | 9.9 | 7.8 | 120 | 559 | – | – | – | – | – | – | – | – | – | – | – | – | – | –
CS(=O)(=O)[O-].O=C(/C=C/c1ccc(O)c(O)c1)NCCCCCC[P+](c1ccccc1)(c1ccccc1)c1ccccc1 | 29.5 | 30.5 | 164 | 164 | inactive | 97.6 | 111 | > 80 | 103 | 112 | – | inactive | 70.8 - 83.3% | 70.8 - 83.3% | inactive | – | – | –
O=C(NCCCCCC[P+](c1ccccc1)(c1ccccc1)c1ccccc1)c1cc(O)c(O)c(O)c1.[Br-] | 14 | 6.5 | 115 | 559 | inactive | 98.2 | 89.4 | > 80 | 100 | 88.5 | Active | inactive | 70.8 - 83.3% | 70.8 - 83.3% | inactive | – | – | –
